According to patent US20240366652A1, “OSTEOARTHRITIS PROGRESSION INHIBITOR AND PROGRESSION INHIBITION KIT” (KYUSHU UNIVERSITY, NATIONAL UNIVERSITY CORPORATION, priority 2021, published 2024):

Columns and labels:
[1] = test system: ADAMTS4; test: ADAMTS4 mRNA expression in LPS-stimulated human OA cartilage cells (quantitative real-time PCR); type: cell-based; settings: Amlexanox 100 μM and/or hyaluronic acid 1 mg/mL, 48 hours, LPS 10 μg/mL 6 hours, GAPDH internal standard
Description: (§1) Human cartilage cells were isolated and cultured from an excised cartilage fragment that is usually discarded after artificial knee joint replacement surgery. All donors provided consent to participate in the clinical research approved by the Ethics Review Committee. Due consideration was given to personal information of all donors in handling. Donor's knee joints were OA grade (Kellgren-lawrence) III to IV on X-rays.
(§2) Amlexanox (concentration in medium: 100 μM) and hyaluronic acid (concentration in medium: 1 mg/mL, weight-average molecular weight: 500,000 or more and 1,490,000 or less) were added to human OA cartilage cells and incubated for 48 hours. As a control, those that had been incubated for 48 hours without any administration, and those that were administered with Amlexanox (concentration in medium: 100 μM) and hyaluronic acid (concentration in medium: 1 mg/mL, weight-average molecular weight: 500,000 or more and 1,490,000 or less) and incubated for 48 hours were also prepared.
(§3) Human OA cartilage cells into which Amlexanox and hyaluronic acid were added were stimulated with lipopolysaccharide (LPS) (concentration in medium: 10 μg/mL) and incubated for 6 hours. Thereafter, mRNA was recovered from the above cells. After reverse transcription, quantitative real-time PCR was performed using LightCycler 2.0 system (Roche). GAPDH was used as an internal standard.

[2] = test system: OA-induced mice (DMM model); test: Cartilage degeneration in OA-induced mice (DMM model), OARSI histopathological score after intraarticular administration; type: in vivo; settings: intraarticular 10 μL every 5 days for 8 weeks, Amlexanox 100 μM, hyaluronic acid 10 mg/mL, versus physiological saline group, 8 weeks after surgery
Description: OA was induced in 12-week-old male mice (wild type mice and GRK5KO mouse) by removing the ligament, which connects and secures the medial meniscus to the tibia, to cause the knee joint instability (DMM model) (hereinafter, referred to as a “DMM group” in some cases). In addition, as a control, mice subjected to a sham operation by the same method without removing the ligament were also prepared (hereinafter, referred to as a “sham group” in some cases). Subsequently, immediately after the OA induction, four groups were classified as follows: a group administered with physiological saline (10 μL) every 5 days for 8 weeks; a group administered with a hyaluronic acid solution (10 mg/mL, 10 μL); a group administered with an Amlexanox solution (100 μM, 10 μL), a group administered with a mixed solution (10 μL) of
Amlexanox (100 μM) and hyaluronic acid (10 mg/mL) (see FIG. 2A). Knee joint tissue sections of each group at a time point of 8 weeks after OA induction surgery were stained with safranin O. The results are shown in FIG. 2B (staining image).
In addition, the severity degree of OA was quantified by evaluating the stained sections based on histopathological grade recommended by OARSI.
Using the same method as in Example 2, a mixed solution of Amlexanox (100 μM) and hyaluronic acid (10 mg/mL) was administered to OA-induced mice every […] for 8 weeks (see FIG. 3A). […]

[3] = after intraarticular administration; cited from earlier work
[4] = test system: GRK5; settings: reported in Reference 2; cited from earlier work
[5] = test system: MMP13; test: MMP13 mRNA expression in LPS-stimulated human OA cartilage cells (quantitative real-time PCR); type: cell-based; settings: Amlexanox 100 μM and/or hyaluronic acid 1 mg/mL, 48 hours, LPS 10 μg/mL 6 hours, GAPDH internal standard
Description: as §1, §2, §3

[6] = test system: IL6; test: IL6 mRNA expression in LPS-stimulated human OA cartilage cells (quantitative real-time PCR); type: cell-based; settings: Amlexanox 100 μM and/or hyaluronic acid 1 mg/mL, 48 hours, LPS 10 μg/mL 6 hours, GAPDH internal standard
Description: as §1, §2, §3

CC(C)c1ccc2oc3nc(N)c(C(=O)O)cc3c(=O)c2c1 [Amlexanox, 2-amino-7-isopropyl-5-oxo-5H-[1]benzopyrano [2,3-b]-pyridine-3-carboxylic acid]
ADAMTS4 expression, control ratio [1]: 42.04% | OARSI score, control group ratio [2]: 56.95% | half-life in joint fluid / in the joint [3]: several hours | GRK5 inhibition (selectivity, in words) [4]: selectively inhibits GRK5 | MMP13 expression, control ratio [5]: 43.83% | IL6 expression, control ratio [6]: 32.99%
